Laboratory results taken from US10738093B2, “Discovery of cationic nonribosomal peptides as Gram-negative antibiotics through global genome mining” (The Hong Kong University of Science and Technology, priority 2018, dated 2020).
Values after ≈ are worked out from the molar mass of the structure shown. Positions of bridges follow the written chain, without caps; N, C: chain ends. Non-standard residues stand in square brackets, D forms with d. Residues, ends and D or L forms follow the SMILES beside them. ξ: configuration not given here. *: point of attachment. Hexanoyl(4ξ-Me) = CCC(C)CCC(=O)*; dOrn = NCCC[C@@H](N)C(=O)O; Orn = NCCC[C@H](N)C(=O)O

What was measured:
[1] = test system: Bacillus subtilis 168; format: cell-based; conditions: 168
Protocol: (§1) Minimum inhibitory concentration (MIC) was determined by broth microdilution according to CLSI guidelines. The test medium for most species was Mueller-Hinton broth (MHB). Bacteria were grown overnight to early stationary phase and adjusted in MHB to 5.0×10^5 colony-forming units per mL (c.f.u./mL) in the wells of 96-well microtiter plates, mixed with varying concentrations of test compounds and incubated at 37° C. for 24 h. […] MHBs containing 10% fetal bovine serum (Gibco), 21 mM MgCl, or 1.0 mg/ml LPS (lipopolysaccharides from Escherichia coli O55:B5, Sigma-Aldrich) were used to test their inhibitory effects.

[2] = test system: Pseudomonas aeruginosa PAO1; format: cell-based; conditions: PAO1
Protocol: as §1

[3] = test system: Methicillin-resistant Staphylococcus aureus ATCC 43300; format: cell-based
Protocol: as §1

[4] = test system: Acinetobacter baumannii; format: cell-based
Protocol: as §1

[5] = test system: Enterobacter cloacae NRRL-B-413; format: cell-based; conditions: NRRL-B-413
Protocol: as §1

[6] = test system: Candida albicans; format: cell-based
Protocol: as §1

[7] = test system: Klebsiella pneumoniae NRRL-B-408; format: cell-based; conditions: NRRL-B-408
Protocol: as §1

[8] = test system: E. coli ATCC 25922; assay: Neutropenic mouse thigh infection model; format: in vivo, Escherichia coli
Protocol: In vivo activities of brevicidine and laterocidine were tested using the mouse thigh infection model. Animal studies were performed by Pharmacology Discovery Services Taiwan Ltd. (Taipei, Taiwan) in general accordance with standard guidelines on animal welfare in an AAALAC-accredited facility. The protocol was reviewed and approved by the Institutional Animal Care and Use Committee. Groups of five female specific-pathogen-free ICR (CD-1) mice weighing 22±2 g (˜5 weeks of age) were used. Animals were immunosuppressed with two intraperitoneal injections of cyclophosphamide, the first at 150 mg/kg 4 d before infection (day −4) and the second at 100 mg/kg 1 d before infection (day −1). On day 0, animals were inoculated intramuscularly (0.1 ml/thigh) in the right thigh with an E. coli ATCC 25922 suspension. Vehicle (10% DMSO, 1% Tween 80, 0.9% NaCl) and antibiotics were then subcutaneously injected 2 h and 8 h later. Due to limited amount of compounds 1-2, only one concentration of 1(30 mg/kg) or 2 (15 mg/kg) was used in this study. At 26 h after inoculation, animals were euthanized by CO2 asphyxiation before the muscle of the right thigh was harvested from each test animal. The removed muscle was homogenized in 5 mL of PBS, pH 7.4, with a polytron homogenizer. Homogenates in the amount of 0.1 mL were used for serial tenfold dilutions and plated onto a nutrient agar medium for colony count (c.f.u./g) determination.

[9] = test system: E. cloacae NRRL-B-425; format: cell-based, Enterobacter cloacae; conditions: NRRL-B-425
Protocol: as §1

**Q.** Which results are given for `CCC(C)CCC(=O)N[C@H](CC(N)=O)C(=O)N[C@H](Cc1ccc(O)cc1)C(=O)N[C@H](Cc1c[nH]c2ccccc12)C(=O)N[C@H](CCCN)C(=O)N[C@@H](CCCN)C(=O)NCC(=O)N[C@H](CCCN)C(=O)N[C@@H](Cc1c[nH]c2ccccc12)C(=O)N[C@@H]1C(=O)N[C@@H]([C@@H](C)CC)C(=O)NCC(=O)N[C@H](CO)C(=O)O[C@@H]1C` (stereo partly drawn) [Compound 1, 4-Methyl-Hexanoyl-D-Asn-D-Tyr-D-Trp-D-Orn-Orn-Gly-D-Orn-Trp-Thr-Ile-Gly-Ser (cyclized via lactone formation between Thr and the C-terminus)] ({Hexanoyl(4ξ-Me)}-[dN][dY][dW][dOrn][Orn]G[dOrn]WTIG[dS]; ester 9-C)?
**A.** MIC [1]: 32 µg/mL (≈ 21.1 µM); MIC Bs [1]: 32 µg/mL (≈ 21.1 µM); MIC [2]: 1 µg/mL (≈ 0.658 µM); MIC Pa [2]: 1 µg/mL (≈ 0.658 µM); MIC ([3]; ATCC 43300): >64 µg/mL; MIC MRSA ([3]; Table 2, Methicillin-resistant Staphylococcus aureus ATCC 43300): ND (ND >64 μg/ml); MIC [4]: 16 µg/mL (≈ 10.5 µM); MIC Ab [4]: 16 µg/mL (≈ 10.5 µM); MIC [5]: 2 µg/mL (≈ 1.32 µM); MIC En [5]: 2 µg/mL (≈ 1.32 µM); MIC [6]: >64 µg/mL; MIC Ca ([6]; Table 2, Candida albicans): ND (ND >64 μg/ml); MIC [7]: 2 µg/mL (≈ 1.32 µM); bactericidal efficacy in mouse thigh infection (viable bacteria) ([8]; brevicidine 30 mg/kg or laterocidine 15 mg/kg, 2 times, after 26 h): reduced numbers of viable bacteria; reduction of c.fu. in thigh compared to the vehicle control ([8]; mice, 30 mg/kg subcutaneously, two doses, at 24 h): 5 log10; MIC [9]: 2 µg/mL (≈ 1.32 µM)
